The text below walks through data of patent US5262417A, “Antibacterial quinolone compounds” (The Upjohn Company, priority 1991, dated 1993).

Assay in all cases: Minimum inhibitory concentration (MIC) by agar dilution
Holding throughout (type): cell-based
For orientation: Agar dilution tests growth on a series of plates holding different concentrations.

One test relates to Enterobacter cloacae. The note with it: UC9382, 20 h, E. cloacae UC 9382, Table CI, read-out: Minimum Inhibitory Concentration. Here is the method:
(§1) Briefly, MIC values are determined in unsupplemented Mueller Hinton Agar (MHA). The compounds tested are diluted serially into molten MHA at 47° C. The agar is poured into petri dishes and allowed to harden. The various bacteria used for testing are grown overnight on MHA at 35° C. and transferred to Trypticase soy broth (TSB) until a turbidity of 0.5 McFarland standard is obtained. The bacteria are diluted one to 20 in TSB and inoculated on the plates (1 μl using a Steers replicator).
as §1, with “Compounds of this invention can also be tested for in vitro antimicrobial activity using standard testing procedures such as the determination of minimum inhibitory concentration (MIC) by agar dilution as described in "Methods for Dilution Antimicrobial Susceptibility Tests for Bacteria That Grow Aerobically" (MFT) published Jan. […] Briefly,” for “Briefly,”, “(1μl” for “(1 μl”

A further test concerns Streptococcus pyogenes. The following applies: Streptococcus pyogenes, UC152, 20 h; S. pyogenes UC 152, Table CI; read-out: Minimum Inhibitory Concentration. Here is the method:
as §1, with “The antibacterial activity of the compounds of Formula IC was determined by using standard testing procedures such as the determination of minimum inhibitory concentration (MIC) by agar dilution as described in "Methods for Dilution Antimicrobial Susceptibility Tests for Bacteria That Grow Aerobically" (MFT) published January 1983 by the National Committee for Clinical Laboratory Standards, 771 East Lancaster Avenue, Villanova, Pa. 19084, USA. Briefly,” for “Briefly,”
(§2) Compounds of this invention can also be tested for in vitro antimicrobial activity using standard testing procedures such as the determination of minimum inhibitory concentration (MIC) by agar dilution as described in "Methods for Dilution Antimicrobial Susceptibility Tests for Bacteria That Grow Aerobically" (MFT) published Jan. 1983 by the National Committee for Clinical Laboratory Standards, 771 East Lancaster Avenue, Villanova, Penna. 19084, USA. Briefly, MIC values are determined in unsupplemented Mueller Hinton Agar (MHA). The compounds tested are diluted serially into molten MHA at 47° C. The agar is poured into petri dishes and allowed to harden. The various bacteria used for testing are grown overnight on MHA at 35° C. and transferred to Trypticase soy broth (TSB) until a turbidity of 0.5 McFarland standard is obtained. The bacteria are diluted one to 20 in TSB and inoculated on the plates (1μl using a Steers replicator). […] The MIC test results of selected of Formula B compounds of this invention are found in Tables B2-B9.

The test system of test [1] is Acinetobacter calcoaceticus. The note with it: Acinetobacter calcoaceticus, UC12170, 20 h; A. calcoaceticus UC 12170, Table CI; read-out: Minimum Inhibitory Concentration. Here is the method: (§3) The antibacterial activity of the compounds of Formula IC was determined by using standard testing procedures such as the determination of minimum inhibitory concentration (MIC) by agar dilution as described in "Methods for Dilution Antimicrobial Susceptibility Tests for Bacteria That Grow Aerobically" (MFT) published January 1983 by the National Committee for Clinical Laboratory Standards, 771 East Lancaster Avenue, Villanova, Pa. 19084, USA. Briefly, MIC values are determined in unsupplemented Mueller Hinton Agar (MHA). The compounds tested are diluted serially into molten MHA at 47° C. The agar is poured into petri dishes and allowed to harden. The various bacteria used for testing are grown overnight on MHA at 35° C. and transferred to Trypticase soy broth (TSB) until a turbidity of 0.5 McFarland standard is obtained. The bacteria are diluted one to 20 in TSB and inoculated on the plates (1 μl using a Steers replicator).
as §2

For a further test, the system named is Serratia marcescens. The note with it: 20 h, S. marcescens, UC number not given, Table CI, read-out: Minimum Inhibitory Concentration. How it is done:
as §3, §2

In a further test the test system is Escherichia coli. The note with it: Escherichia coli, read-out: Minimum Inhibitory Concentration. Here is the method: as §3, §2
The subject of another test is Pseudomonas aeruginosa. The following applies: Pseudomonas aeruginosa, read-out: Minimum Inhibitory Concentration. Here is the method:
as §3, §2

Another test concerns Klebsiella pneumoniae. The following applies: UC12081, 20 h, K. pneumoniae UC 12081, Table CI, read-out: Minimum Inhibitory Concentration. Here is the method:
as §3, §2

In the next test the test system is Staphylococcus aureus. The note with it: Staphylococcus aureus, read-out: Minimum Inhibitory Concentration. How it is done:
as §3, §2

The next test concerns Citerobacter freundii. The note with it: Citrobacter freundii, UC3507, 20 h; C. freundii UC 3507, Table CI; read-out: Minimum Inhibitory Concentration. Here is the method:
as §3, §2

The next test has as its system Streptococcus pneumoniae. The following applies: Streptococcus pneumoniae, UC41, 20 h; S. pneumoniae UC 41, Table CI; read-out: Minimum Inhibitory Concentration. Here is the method: as §3, §2
The test system of the next test is Streptococcus faecalis. The following applies: Enterococcus faecalis, UC9217, 20 h; S. faecalis UC 9217, Table CI; read-out: Minimum Inhibitory Concentration. Here is the method:
as §3, §2

For test [2], the system named is Staphylococcus epidermidis. The following applies: 20 h, S. epidermidis 30031, Table CI, read-out: Minimum Inhibitory Concentration. Here is the method: as §3, §2
The subject of a further test is Proteus penneri. The note with it: Proteus penneri, UC9679, 20 h; P. penneri UC 9679, Table CI; read-out: Minimum Inhibitory Concentration. Here is the method:
as §3, §2

The mark [3] stands for this setting: UC6674, 20 h, E. coli UC 6674, Table CI.
[4] abbreviates: UC9451, 20 h, E. coli UC 9451, Table CI.
[5] abbreviates: UC9855, 20 h, E. coli UC 9855, Table CI.
Setting [6] is: UC9952, 20 h, E. coli UC 9952, Table CI.
The mark [7] stands for this setting: UC6676, 20 h, Ps. aeruginosa UC 6676, Table CI.
[8] abbreviates: UC9191, 20 h, Ps. aeruginosa UC 9191, Table CI.
Setting [9] is: UC12120, 20 h, Ps. aeruginosa UC 12120, Table CI.
The mark [10] stands for this setting: UC6685, 20 h, S. aureus UC 6685, Table CI.
[11] abbreviates: UC9213, 20 h, S. aureus UC 9213, Table CI.
[12] abbreviates: UC9218, 20 h, S. aureus UC 9218, Table CI.
The mark [13] stands for this setting: UC9271, 20 h, S. aureus UC 9271, Table CI.

In brackets after ≈: the same amount, converted by molar mass. Like-named read-outs stand apart in the source and are kept apart here.

As for `C#CC(C)(C)n1cc(C(=O)O)c(=O)c2cc(F)c(N3CCC(N)C3)c(F)c21` (racemic) [B], the MIC with Enterobacter cloacae was 0.25 µg/mL (≈ 0.666 µM); in the test with Streptococcus pyogenes it was 1 µg/mL (≈ 2.66 µM); in test [1] it was 0.5 µg/mL (≈ 1.33 µM); with Serratia marcescens it was 1 µg/mL (≈ 2.66 µM); in the test with Escherichia coli (setting [3]) it was 0.125 µg/mL (≈ 0.333 µM); in the test with Escherichia coli (setting [4]), 0.125 µg/mL (≈ 0.333 µM). In addition, the MIC in the test on Escherichia coli (setting [5]) was determined as 0.25 µg/mL (≈ 0.666 µM); in the test with Escherichia coli (setting [6]), 0.125 µg/mL (≈ 0.333 µM); with Pseudomonas aeruginosa (setting [7]) it was 2 µg/mL (≈ 5.33 µM); in the test with Pseudomonas aeruginosa (setting [8]), 2 µg/mL (≈ 5.33 µM); with Pseudomonas aeruginosa (setting [9]) it was 1 µg/mL (≈ 2.66 µM); with Klebsiella pneumoniae, 0.25 µg/mL (≈ 0.666 µM). For the same molecule, the MIC stood at 0.25 µg/mL (≈ 0.666 µM) with Staphylococcus aureus (setting [10]); 0.5 µg/mL (≈ 1.33 µM) with Staphylococcus aureus (setting [11]); 0.5 µg/mL (≈ 1.33 µM) with Staphylococcus aureus (setting [12]); 0.5 µg/mL (≈ 1.33 µM) in the test with Staphylococcus aureus (setting [13]); 0.125 µg/mL (≈ 0.333 µM) with Citerobacter freundii; 2 µg/mL (≈ 5.33 µM) with Streptococcus pneumoniae. For the same molecule, the MIC was found to be 2 µg/mL (≈ 5.33 µM) with Streptococcus faecalis, 0.25 µg/mL (≈ 0.666 µM) in test [2] and 1 µg/mL (≈ 2.66 µM) in the test with Proteus penneri.
With `C#CCn1cc(C(=O)O)c(=O)c2cc(F)c(N3CCC(N)C3)c(F)c21` (racemic) [D], the MIC in the test with Enterobacter cloacae is 1 µg/mL (≈ 2.88 µM); in the test on Streptococcus pyogenes, 16 µg/mL (≈ 46.1 µM); in test [1], 4 µg/mL (≈ 11.5 µM); in the test on Serratia marcescens, 0.06 µg/mL (≈ 0.173 µM); in the test on Escherichia coli (setting [3]) it was 1 µg/mL (≈ 2.88 µM); with Escherichia coli (setting [4]), 0.5 µg/mL (≈ 1.44 µM). In addition, the MIC came out at 2 µg/mL (≈ 5.76 µM) in the test on Escherichia coli (setting [5]); 0.5 µg/mL (≈ 1.44 µM) in the test on Escherichia coli (setting [6]); 8 µg/mL (≈ 23 µM) in the test with Pseudomonas aeruginosa (setting [7]); 8 µg/mL (≈ 23 µM) in the test on Pseudomonas aeruginosa (setting [8]); 4 µg/mL (≈ 11.5 µM) in the test with Pseudomonas aeruginosa (setting [9]); 1 µg/mL (≈ 2.88 µM) with Klebsiella pneumoniae. In addition, the MIC in the test on Staphylococcus aureus (setting [10]) is 4 µg/mL (≈ 11.5 µM); in the test on Staphylococcus aureus (setting [11]), 8 µg/mL (≈ 23 µM); in the test with Staphylococcus aureus (setting [12]) it was 8 µg/mL (≈ 23 µM); in the test on Staphylococcus aureus (setting [13]) it was 8 µg/mL (≈ 23 µM); in the test with Citerobacter freundii, 0.5 µg/mL (≈ 1.44 µM); with Streptococcus pneumoniae it was 32 µg/mL (≈ 92.1 µM). Further, the MIC worked out at 32 µg/mL (≈ 92.1 µM) in the test with Streptococcus faecalis, 2 µg/mL (≈ 5.76 µM) in test [2] and 0.5 µg/mL (≈ 1.44 µM) in the test with Proteus penneri.
With `C#CC(C)(C)n1cc(C(=O)O)c(=O)c2cc(F)c(N3CCC(N)C3)nc21.CS(=O)(=O)O` (racemic) [E, (+,-)-7-(3-amino-1-pyrrolidinyl)-1,4-dihydro-1-(1,1-dimethyl-2-propynyl)-6-fluoro-4-oxo-1,8-naphthyridine-3-carboxylic acid methanesulfonate], the MIC in the test with Enterobacter cloacae is 0.06 µg/mL; with Streptococcus pyogenes, 0.25 µg/mL; in test [1], 0.25 µg/mL; in the test with Escherichia coli (setting [3]) it was 0.06 µg/mL; with Escherichia coli (setting [4]) it was 0.06 µg/mL; with Escherichia coli (setting [5]), 0.06 µg/mL. Also, the MIC in the test with Escherichia coli (setting [6]) was 0.06 µg/mL; in the test on Pseudomonas aeruginosa (setting [7]) it was 2 µg/mL; in the test on Pseudomonas aeruginosa (setting [8]) it was 1 µg/mL; in the test on Pseudomonas aeruginosa (setting [9]) it was 0.5 µg/mL; in the test with Klebsiella pneumoniae, 0.125 µg/mL; in the test on Staphylococcus aureus (setting [10]), 0.125 µg/mL. The MIC in the test with Staphylococcus aureus (setting [11]) came out at 0.25 µg/mL; in the test on Staphylococcus aureus (setting [12]), 0.25 µg/mL; with Staphylococcus aureus (setting [13]) it was 0.25 µg/mL; in the test with Citerobacter freundii, 0.06 µg/mL; with Streptococcus pneumoniae, 0.5 µg/mL; with Streptococcus faecalis, 1 µg/mL. In addition, the MIC in test [2] was 0.125 µg/mL; in the test on Proteus penneri, 0.5 µg/mL.
